Assay [1] relates to motor neurons derived from ALS patient iPSC line with pathogenic mutation in TARDBP. Put plainly: Optopatch excitability assay in motor neurons derived from ALS patient iPSC line (TARDBP mutation). It counts as cell-based, human. To be noted: Homo sapiens, iPSC, TARDBP line, blue LED 5.1 mW/cm^2, mean, read-out: EC50, inhibition of excitability (action potential frequency). The source says: (§1) Optopatch Excitability Assay for Example 1 in Motor Neurons Derived From ALS Patient iPSC Lines
(§2) Altered excitability of cortical neurons and lower motor neuron is an important factor in the pathophysiology of ALS (See, for example, K. Kanai, et. al., J Neurol Neurosurg Psychiatry, 83, 734-738 (2012); P. Menon, et. al., Eur Neurol., 24, 816-824 (2017)). All-optical electrophysiology (“Optopatch”) was used to evaluate excitability in cultured motor neurons derived from iPSC lines from two ALS patients with different pathogenic mutations.
(§3) Cell Culture: The two iPSC lines are derived from one patient with a pathogenic mutation in TARDBP and one patient with a pathogenic repeat expansion mutation in C9orf72, respectively. Motor neurons are generated from these lines by a 2D differentiation method adapted from the dual SMAD inhibition neuronal patterning protocol (See S. M. Chambers, et. al., Nat Biotechnol., 27, 275-280 (2009)) by inclusion of motor neuron morphogens. Differentiation is verified by visual inspection, karyotyping and staining for beta-III-tubulin and the nuclear motor neuron marker ISL1. Neurons are cultured on a monolayer of mouse glia in mTeSR (Stem Cell Technologies), supplemented with 10 ng/mL BDNF. Forty-eight hours prior to imaging, 100 nM trans-retinal was added to the medium.
(§4) Transduction with Optopatch vectors: At 15 days in vitro, cultured motor neurons are transduced with a lentiviral vector to drive the co-expression of the actuator CheRiff-mOrange2 and the voltage indicator QuasAr3-Citrine (for details see D. R. Hochbaum, et. al., Nat. Methods, 11, 825-833 (2014)). Forty-eight hours prior to imaging, 100 nM trans-retinal was added to the medium.
Solutions: Recordings are performed in Brainphys™ imaging buffer with 3 mM potassium. The gap junction blocker 2-aminoethoxydiphenyl borate (50 μM) is added to eliminate electrical coupling between cells, and NBQX (10 μM), gabazine (20 μM), and AP5 (25 μM) were used to block synaptic transmission.
Optopatch Recordings: Five days after transduction, Optopatch imaging is performed on a custom, ultra-widefield fluorescence microscope at RT. Motor neurons are illuminated with red laser excitation (200 W/cm^2; 635 nm) to monitor changes in QuasAr fluorescence and blue LED excitation (0-127 mW/cm^2, 470 nm) to depolarize the cell membrane with CheRiff. A custom blue light stimulus protocol is used consisting of: i) 2 sec of red illumination only to monitor spontaneous activity, ii) 5×500 msec steps of increasing blue light intensity and iii) 2×2 sec linearly increasing blue light ramps, each with a different maximum blue intensity. Optopatch data are recorded using a Hamamatsu ORCA-Flash 4.0 sCMOS camera with a 1 kHz frame rate. The field of view size is 4 mm×0.5 mm. Custom control software written in MATLAB is used to control illumination protocols and record all movies. To examine acute effects of Kv7.2/7.3 potentiators, neurons are incubated with test compound for 15 min prior to imaging.
Data Analysis: Image segmentation analysis is performed using temporal Principle Component Analysis and spatial-temporal Independent Component Analysis to isolate individual neurons. A spike-finding algorithm is used to find action potentials, and data are analyzed for compound effects on mean firing rate, adaptation, rheobase and action potential waveform shape by comparing to vehicle controls (for detail, see C. A. Werley, et. al., Curr. Protoc. Pharmacol., 78, 11.20.1-11.20.24. (2017)).
Subjected to the protocol described above, the primary effect of the Example 1 is on the action potential firing rate in response to low intensity blue light illumination.
Fitting a 4-parameter logistic equation to the data may be used to determine the potency (EC50) of the effect of Example 1 on action potential frequency. Results are shown in Table 1 for two separate differentiation efforts each for the lines derived from the patients carrying the TARDBP and C9orf72 mutations.

The subject of assay [2] is motor neurons derived from ALS patient iPSC line with pathogenic repeat expansion mutation in C9orf72. Put plainly: Optopatch excitability assay in motor neurons derived from ALS patient iPSC line (C9orf72 repeat expansion). It counts as cell-based. The conditions noted are these: Homo sapiens, read-out: EC50, inhibition of excitability (action potential frequency).
Source text: as §1, §2, §3, §4
Solutions: Recordings are performed in Brainphys™ imaging buffer with 3 mM potassium. […]
Optopatch Recordings: Five days after transduction, Optopatch imaging is performed on a custom, ultra-widefield fluorescence microscope at RT. Motor neurons are illuminated with red laser excitation (200 W/cm^2; 635 nm) to monitor changes in QuasAr fluorescence and blue LED excitation (0-127 mW/cm^2, 470 nm) to depolarize the cell membrane with CheRiff. […] Optopatch data are recorded using a Hamamatsu ORCA-Flash 4.0 sCMOS camera with a 1 kHz frame rate. […]
Data Analysis: Image segmentation analysis is performed using temporal Principle Component Analysis and spatial-temporal Independent Component Analysis to isolate individual neurons. A spike-finding algorithm is used to find action potentials, and data are analyzed for compound effects on mean firing rate, adaptation, rheobase and action potential waveform shape by comparing to vehicle controls (for detail, see C. A. Werley, et. al., Curr. Protoc. Pharmacol., 78, 11.20.1-11.20.24. (2017)). […]

For orientation: EC50 means the concentration needed to bring the measured effect to its halfway point.

Like-named read-outs stand apart in the source and are kept apart here.

`CCOC(=O)Nc1ccc(NCc2ccc(F)cc2)nc1N` [Flupirtine, flupirtine, reference compound]: the EC50 in assay [1] (Diff 1) was determined as 1.15 µM; in assay [1] (Diff 2) it was 0.84 µM; in assay [2] (Diff 1, blue LED 5.1 mW/cm^2, mean) it was 1.66 µM; in assay [2] (Diff 2, blue LED 5.1 mW/cm^2, mean), 1.35 µM.

The values above are taken from patent publication US12344584B2, “KCNQ potentiators” (Eli Lilly and Company, priority 2019, dated 2025).
